# Data: patent publication US20210276977A1, “BICYCLIC INHIBITORS OF HISTONE DEACETYLASE” (Alkermes, Inc., priority 2018, published 2021)
# How the values were obtained:
# Full length Human HDAC2 = target: T1, Full length Human HDAC2 (Homo sapiens, UniProt Q92769); experiment: HDAC2 enzymatic assay (deacetylation of FAM-labeled peptide substrate, microfluidic electrophoresis); type: biochemical; settings: for IC50: recombinant enzymatic assay
# T1 construct: Full length Human HDAC2; FLAG (C); host or cells: baculovirus expression system
# T1 sequence (Q92769 whole entry): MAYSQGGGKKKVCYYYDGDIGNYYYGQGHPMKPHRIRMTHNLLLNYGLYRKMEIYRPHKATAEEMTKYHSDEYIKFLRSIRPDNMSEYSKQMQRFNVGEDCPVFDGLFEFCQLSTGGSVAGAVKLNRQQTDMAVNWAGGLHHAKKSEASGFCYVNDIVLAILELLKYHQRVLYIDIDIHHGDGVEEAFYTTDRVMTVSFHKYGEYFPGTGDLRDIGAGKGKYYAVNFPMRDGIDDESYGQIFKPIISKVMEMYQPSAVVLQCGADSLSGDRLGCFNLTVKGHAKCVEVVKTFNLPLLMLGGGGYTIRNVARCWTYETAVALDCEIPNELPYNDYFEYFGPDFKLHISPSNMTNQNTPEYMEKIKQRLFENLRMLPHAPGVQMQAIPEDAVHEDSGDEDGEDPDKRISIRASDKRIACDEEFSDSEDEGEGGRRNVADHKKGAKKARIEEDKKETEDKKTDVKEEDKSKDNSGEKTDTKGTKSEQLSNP
# Procedure: (§1) HDAC2 and HDAC1 Enzymatic Assay (HDAC2 and HDAC1 IC50 Data)
# (§2) The following describes an assay protocol for measuring the deacetylation of a peptide substrate by HDAC2 or HDAC1.
# (§3) HD AC protein composition and respective substrate peptides are summarized below.
# (§4) HD AC reactions are assembled in 384 well plates (Greiner) in a total volume of 20 μL as following:
# (§5) HDAC proteins are pre-diluted in the assay buffer comprising: 100 mM HEPES, pH 7.5, 0.1% BSA, 0.01% Triton X-100, 25 mM KCl and dispensed into 384 well plate (10 uL per well).
# (§6) Test compounds are serially pre-diluted in DMSO and added to the protein samples by acoustic dispensing (Labcyte Echo). Concentration of DMSO is equalized to 1% in all samples.
# (§7) Control samples (0%-inhibition in the absence of inhibitor, DMSO only) and 100%-inhibition (in the absence of enzyme) are assembled in replicates of four and used to calculate the %-inhibition in the presence of compounds.
# (§8) At this step compounds can be pre-incubated with enzyme if desired.
# (§9) The reactions are initiated by addition of 10 uL of the FAM-labeled substrate peptide pre-diluted in the same assay buffer. Final concentration of substrate peptide is 1 uM (HDAC1-2).
# (§10) The reactions are allowed to proceed at room temperature. Following incubation, the reactions are quenched by addition of 50 μL of termination buffer (100 mM HEPES, pH7.5, 0.01% Triton X-100, 0.1% SDS). Terminated plates are analyzed on a microfluidic electrophoresis instrument (Caliper LabChip® 3000, Caliper Life Sciences/Perkin Elmer) which enables electrophoretic separation of de-acetylated product from acetylated substrate. A change in the relative intensity of the peptide substrate and product is the parameter measured. Activity in each test sample is determined as the product to sum ratio (PSR): P/(S+P), where P is the peak height of the product, and S is the peak height of the substrate. Percent inhibition (Pinh) is determined using the following equation: Pinh=(PSR0% inh−PSRcompound)/(PSR0% inh−PSR100% inh)*100, in which: PSRcompound is the product/sum ratio in the presence of compound, PSR0% inh is the product/sum ratio in the absence of compound and the PSR100% inh is the product/sum ratio in the absence of the enzyme. To determine IC50 of compounds (50%-inhibition) the %-inh data (Pinh versus compound concentration) are fit by a 4 parameter sigmoid dose-response model using XLfit software (IDBS).
# (§11) In the table, “A” indicates a IC50 value of less than 0.5 μM; “B” a IC50 value from 0.5 μM to 1.0 μM; “C” a IC50 value of greater than 1.0 μM and less than or equal to 2.0 μM; and “D” indicates an IC50 value of greater than 2.0 μM. NT=Not Tested.
# Full length Human HDAC1 = target: T2, Full length Human HDAC1 (Homo sapiens, UniProt Q13547); experiment: HDAC1 enzymatic assay (deacetylation of FAM-labeled peptide substrate, microfluidic electrophoresis); type: biochemical; settings: for IC50: recombinant enzymatic assay
# T2 construct: Full length Human HDAC1; His (C); FLAG (C); host or cells: baculovirus expression system
# T2 sequence (Q13547 whole entry): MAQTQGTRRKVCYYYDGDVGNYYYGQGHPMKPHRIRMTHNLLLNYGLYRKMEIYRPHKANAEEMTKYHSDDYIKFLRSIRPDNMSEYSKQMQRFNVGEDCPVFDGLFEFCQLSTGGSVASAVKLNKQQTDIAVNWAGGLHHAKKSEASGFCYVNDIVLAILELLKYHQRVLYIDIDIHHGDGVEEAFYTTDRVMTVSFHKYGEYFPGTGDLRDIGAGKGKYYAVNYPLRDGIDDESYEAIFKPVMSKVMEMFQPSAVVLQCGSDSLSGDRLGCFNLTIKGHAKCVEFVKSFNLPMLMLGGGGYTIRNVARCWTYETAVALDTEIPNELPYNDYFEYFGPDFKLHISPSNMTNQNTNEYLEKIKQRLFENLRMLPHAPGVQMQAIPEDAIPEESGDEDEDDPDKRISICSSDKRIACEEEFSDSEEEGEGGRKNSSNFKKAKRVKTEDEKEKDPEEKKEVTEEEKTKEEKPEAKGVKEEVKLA
# Procedure: as §1, §2, §3, §4, §5, §6, §7, §8, §9, §10, §11
# HDAC2 = target: T3, HDAC2 (Homo sapiens, UniProt Q92769); experiment: HDAC2 Enzymatic Inhibition Assay in SH-SY5Y Cell Lysate with an Exogenous Substrate (HDAC-Glo 2); type: cell-based; settings: for IC50: SH-SY5Y cells
# T3 construct: host or cells: SH-SY5Y cells
# T3 sequence (Q92769 whole entry): as the sequence (Q92769 whole entry) above
# Procedure: HDAC2 Enzymatic Inhibition Assay in SH-SY5Y Cell Lysate with an Exogenous Substrate
# SH-SY5Y cells (Sigma) were cultured in Eagle's Modified Essential Medium supplemented with 10% fetal bovine serum and pen/strep. Twenty-four hours prior to compound dosing 20 uL of cells were plated in white 384 well plates at a density of 1,500 cells/well. Compounds were serially diluted in neat DMSO and then diluted 1:100 v/v into media without FBS and mixed. Media was removed from the plated cells and the diluted compounds in serum free media (1% v/v final DMSO) were added and incubated at 37° C. for five hours. Ten uL of HDAC-Glo 2 reagent with 0.1% Triton X-100 was then added, the plate was mixed and allowed to develop at room temperature for 100 minutes. Plates were then read with a Spectramax LMax luminometer employing a 0.4 s integration time. Dose response curves were constructed with normalized data where CI-994 at 100 uM was defined as 100% inhibition and DMSO alone as 0% inhibition.
# as §11
# [1] = five hours incubation, Table 3, class symbols
# [2] = versus matched Comparator with heteroaromatic ring directly linked to azetidine
"IC50 (Full length Human HDAC2; Table 2, class symbols) [nM]","IC50 (Full length Human HDAC1; Table 2, class symbols) [nM]",IC50 (HDAC2; [1]) [nM],SMILES,other results
500 to 1000,< 500,1000 to 2000,Nc1ccc(-c2ccc(F)cc2)nc1NC(=O)N1CC(Cc2ncc(C(F)F)cn2)C1 [Compound 76],
500 to 1000,< 500,1000 to 2000,CC(c1ncccn1)C1CN(C(=O)Nc2nc(-c3ccc(F)cc3)ccc2N)C1 (centres unmarked) [Compound 57],
,,> 2000,Nc1ccc(-c2ccc(F)cc2F)nc1NC(=O)N1CC(Cc2cncnc2)C1 [Compound 20],
1000 to 2000,1000 to 2000,1000 to 2000,Cc1cncc(CC2CN(C(=O)Nc3nc(-c4ccc(F)cc4F)ccc3N)C2)n1 [Compound 13],
500 to 1000,500 to 1000,> 2000,Nc1ccc(-c2ccc(F)cc2F)nc1NC(=O)N1CC(C(F)(F)c2ncc(F)cn2)C1 [Compound 34],
,,> 2000,Nc1ccc(-c2ccc(F)cc2F)nc1NC(=O)N1CC(Cc2cccc3nccn23)C1 [Compound 48],
500 to 1000,< 500,1000 to 2000,Nc1ccc(-c2ccc(F)s2)nc1NC(=O)N1CC(Cc2ncc(F)cn2)C1 [Compound 61],
< 500,< 500,1000 to 2000,Nc1ccc(-c2ccc(F)cc2)nc1NC(=O)N1CC(C(F)(F)c2ncccn2)C1 [Compound 36],
,,500 to 1000,Cc1cnc(CC2CN(C(=O)Nc3nc(-c4ccc(F)s4)ccc3N)C2)nc1 [Compound 67],
500 to 1000,< 500,1000 to 2000,COCc1ccc(CC2CN(C(=O)Nc3nc(-c4ccc(F)cc4)ccc3N)C2)nc1 [Compound 83],
500 to 1000,500 to 1000,1000 to 2000,Nc1ccc(-c2ccc(F)cc2F)nc1NC(=O)N1CC(Cc2cnccn2)C1 [Compound 12],
1000 to 2000,500 to 1000,1000 to 2000,Nc1ccc(-c2ccc(F)cc2)nc1NC(=O)N1CC(Cn2cccn2)C1 [Compound 73],
,,> 2000,Nc1ccc(-c2ccc(F)cc2F)nc1NC(=O)N1CC(Cc2ccn3cncc3c2)C1 [Compound 8],
> 2000,> 2000,1000 to 2000,COC1(Cc2nccn2C)CN(C(=O)Nc2nc(-c3ccc(F)cc3)ccc2N)C1 [Compound 87],
< 500,< 500,500 to 1000,Nc1ccc(-c2ccc(F)cc2)nc1NC(=O)N1CC(C(F)(F)c2ncc(F)cn2)C1 [Compound 38],
,,> 2000,Nc1ccc(-c2ccc(F)cc2F)nc1NC(=O)N1CC(Cc2ccc(C(F)(F)F)cn2)C1 [Compound 49],
,,1000 to 2000,Nc1ccc(-c2ccc(F)cc2F)nc1NC(=O)N1CC(Cc2ccncn2)C1 [Compound 32],
,,> 2000,Cc1cnc(CC2CN(C(=O)Nc3nc(-c4ccc(F)s4)ccc3N)C2)o1 [Compound 62],
500 to 1000,500 to 1000,1000 to 2000,Nc1ccc(-c2ccc(F)cc2F)nc1NC(=O)N1CC(C(F)(F)c2ncccn2)C1 [Compound 33],
500 to 1000,500 to 1000,500 to 1000,Nc1ccc(-c2ccccc2F)nc1NC(=O)N1CC(C(F)(F)c2ncc(F)cn2)C1 [Compound 37],
1000 to 2000,< 500,> 2000,Nc1ccc(-c2ccc(F)cc2)nc1NC(=O)N1CC(Cc2ccc(F)cn2)C1 [Compound 77],
,,> 2000,Cc1cnc(CC2CN(C(=O)Nc3nc(-c4ccc(F)cc4F)ccc3N)C2)s1 [Compound 25],
1000 to 2000,500 to 1000,> 2000,Cc1cccc(CC2CN(C(=O)Nc3nc(-c4ccc(F)cc4)ccc3N)C2)n1 [Compound 79],
1000 to 2000,500 to 1000,1000 to 2000,Cc1ncc(CC2CN(C(=O)Nc3nc(-c4ccc(F)cc4)ccc3N)C2)cn1 [Compound 80],

"IC50 (Full length Human HDAC2; Table 2, class symbols) [nM]","IC50 (Full length Human HDAC1; Table 2, class symbols) [nM]",IC50 (HDAC2; [1]) [nM],SMILES,other results
500 to 1000,< 500,< 500,Nc1ccc(-c2ccc(F)cc2F)nc1NC(=O)N1CC(Cc2ncccn2)C1 [Compound 1],"IC50 (Full length Human HDAC2; Table 4, numeric): 700 nM; fold more potent in the HDAC2 recombinant enzymatic assay than the corresponding comparator without spacer X (Full length Human HDAC2; [2]): > 7 fold; IC50 (Full length Human HDAC1; Table 4, numeric): 454 nM; fold more potent in the HDAC1 recombinant enzymatic assay than the corresponding comparator without spacer X (Full length Human HDAC1; [2]): 10 fold; IC50 (HDAC2; Table 4, numeric): 496 nM; fold more potent in the SH-SY5Y cell assay than the corresponding comparator without spacer X (HDAC2; [2]): 100 fold"
> 2000,1000 to 2000,> 2000,COCc1ccc(CC2CN(C(=O)Nc3nc(-c4ccc(F)cc4F)ccc3N)C2)cn1 [Compound 9],
1000 to 2000,500 to 1000,500 to 1000,Nc1ccc(-c2ccc(F)cc2F)nc1NC(=O)N1CC(C(F)c2ncccn2)C1 (centres unmarked) [Compound 40],
,,,"Cc1cnc(C2CN(C(=O)Nc3nc(-c4ccc(F)cc4F)ccc3N)C2)cn1 [Comparator C, reference compound]","IC50 (Full length Human HDAC2; Table 4, numeric): 13500 nM; IC50 (Full length Human HDAC1; Table 4, numeric): 13900 nM; IC50 (HDAC2; Table 4, numeric): 9700 nM"
1000 to 2000,500 to 1000,500 to 1000,Cc1nccnc1CC1CN(C(=O)Nc2nc(-c3ccc(F)cc3F)ccc2N)C1 [Compound 16],
1000 to 2000,1000 to 2000,1000 to 2000,Nc1ccc(-c2ccc(F)cc2F)nc1NC(=O)N1CC(Cn2cccn2)C1 [Compound 30],
,,1000 to 2000,Cc1cnc(CC2CN(C(=O)Nc3nc(-c4ccc(F)cc4)ccc3N)C2)o1 [Compound 63],
,,> 2000,CC(F)(c1ncccn1)C1CN(C(=O)Nc2nc(-c3ccc(F)cc3F)ccc2N)C1 (centres unmarked) [Compound 60],
,,> 2000,Cc1cnc(CC2CN(C(=O)Nc3nc(-c4ccc(F)cc4F)ccc3N)C2)o1 [Compound 55],
,,> 2000,Nc1ccc(-c2ccc(F)cc2)nc1NC(=O)N1CC(Cc2ccc(C(F)(F)F)cn2)C1 [Compound 85],
,,> 2000,COCc1cc(CC2CN(C(=O)Nc3nc(-c4ccc(F)cc4F)ccc3N)C2)ccn1 [Compound 18],
,,> 2000,Cc1cc(CC2CN(C(=O)Nc3nc(-c4ccc(F)cc4F)ccc3N)C2)nc(C)n1 [Compound 10],
,,> 2000,COCc1cccc(CC2CN(C(=O)Nc3nc(-c4ccc(F)cc4F)ccc3N)C2)n1 [Compound 17],
,,> 2000,Cc1ccn(CC2CN(C(=O)Nc3nc(-c4ccc(F)cc4F)ccc3N)C2)n1 [Compound 53],
,,> 2000,Cc1cncn1CC1CN(C(=O)Nc2nc(-c3ccc(F)cc3F)ccc2N)C1 [Compound 52],
,,> 2000,Cc1cc(C)nc(CC2CN(C(=O)Nc3nc(-c4ccc(F)cc4F)ccc3N)C2)n1 [Compound 50],
,,> 2000,Nc1ccc(-c2ccc(F)cc2F)nc1NC(=O)N1CC(OCc2ccccn2)C1 [Compound 29],
,,1000 to 2000,Cc1ccnn1CC1CN(C(=O)Nc2nc(-c3ccc(F)cc3F)ccc2N)C1 [Compound 54],
,,1000 to 2000,Nc1ccc(-c2ccc(F)cc2F)nc1NC(=O)N1CC(C(F)c2ncc(F)cn2)C1 (centres unmarked) [Compound 41],
,,> 2000,Nc1ccc(-c2ccc(F)cc2)nc1NC(=O)N1CC(C(F)(F)c2ccccn2)C1 [Compound 75],
,,> 2000,CCC(c1ncccn1)C1CN(C(=O)Nc2nc(-c3ccc(F)cc3F)ccc2N)C1 (centres unmarked) [Compound 56],
,,> 2000,Cc1cn(CC2CN(C(=O)Nc3nc(-c4ccc(F)cc4F)ccc3N)C2)cn1 [Compound 51],
,,1000 to 2000,CC(c1ncccn1)C1CN(C(=O)Nc2nc(-c3ccccc3F)ccc2N)C1 (centres unmarked) [Compound 58],
,,> 2000,Nc1ccc(-c2ccc(F)cc2F)nc1NC(=O)N1CC(Oc2cccnc2)C1 [Compound 28],
